Measured values taken from PubChem BioAssay AID2060906 (Molecular Pharmacology Branch, DTP, NCI, 2025).
“And” between values parts separate entries of the source, which are not always exact repeats. Equal entries are not always repeated.

System: 485176-168-R4-J1-PDC complex spheroid growth
Experiment: Anticancer human tumor 485176-168-R4-J1-PDC patient-derived pancreatic adenocarcinoma cell line growth inhibition [RAS]
Conditions: for viability, T/C: stronger effect = lower value; active = viability on the fitted dose curve at most 10% of control; inactive = the rest
How it was run: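 Agents were tested in combination matrices in half-log decrements from a top concentration at or near clinical Cmax (10 microM if undetermined). Targets were multi-cell spheroids of tumour lines plus HUVEC and MSC stromal cells.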
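Also: spheroids exposed to compounds for seven days before readout.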
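For viability, T/C in this document: luminescence viability expressed relative to DMSO vehicle wells set as 100%.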

CC(=O)OC12COC1CC(O)C1(C)C(=O)C(O)C3=C(C)C(OC(=O)C(O)C(NC(=O)OC(C)(C)C)c4ccccc4)CC(O)(C(OC(=O)c4ccccc4)C21)C3(C)C (stereo not given) + C#Cc1c(F)ccc2cc(O)cc(-c3ncc4c(N5CC6CCC(C5)N6)nc(OCC56CCCN5CC(F)C6)nc4c3F)c12
< 31.6 nM: IC50 (curve of first compound, second compound 0.0316 µM) | IC50 (curve of first compound, second compound 0.1 µM) | IC50 (curve of first compound, second compound 0.316 µM) | IC50 (curve of first compound, second compound 1 µM) | IC50 (curve of first compound, second compound 3.16 µM) | IC50 (curve of first compound, second compound 10 µM)
inactive: viability, T/C (second compound 0.0316 µM, first compound 0.0316 µM) 18.5% | viability, T/C (second compound 0.0316 µM, first compound 0.1 µM) 15.3% | viability, T/C (second compound 0.0316 µM, first compound 0.316 µM) 14.6% | viability, T/C (second compound 0.0316 µM, first compound 1 µM) 13.5% | viability, T/C (second compound 0.0316 µM, first compound 3.16 µM) 18.5% | viability, T/C (second compound 0.0316 µM, first compound 10 µM) 21.8% | viability, T/C (second compound 0.1 µM, first compound 0.0316 µM) 19.1% | viability, T/C (second compound 0.1 µM, first compound 0.1 µM) 14.5% | viability, T/C (second compound 0.1 µM, first compound 0.316 µM) 13.7% | viability, T/C (second compound 0.1 µM, first compound 1 µM) 14.9% | viability, T/C (second compound 0.1 µM, first compound 3.16 µM) 19.8% | viability, T/C (second compound 0.1 µM, first compound 10 µM) 21.2% | viability, T/C (second compound 0.316 µM, first compound 0.0316 µM) 15.1% | viability, T/C (second compound 0.316 µM, first compound 0.1 µM) 12.4% | viability, T/C (second compound 0.316 µM, first compound 0.316 µM) 13.4% | viability, T/C (second compound 0.316 µM, first compound 1 µM) 11.6% | viability, T/C (second compound 0.316 µM, first compound 3.16 µM) 16.6% | viability, T/C (second compound 0.316 µM, first compound 10 µM) 19.4% | viability, T/C (second compound 1 µM, first compound 0.0316 µM) 17% | viability, T/C (second compound 1 µM, first compound 0.1 µM) 15.8% | viability, T/C (second compound 1 µM, first compound 0.316 µM) 12.8% | viability, T/C (second compound 1 µM, first compound 1 µM) 11.8% | viability, T/C (second compound 1 µM, first compound 3.16 µM) 19.2% | viability, T/C (second compound 1 µM, first compound 10 µM) 20.6% | viability, T/C (second compound 3.16 µM, first compound 0.0316 µM) 20.6% | viability, T/C (second compound 3.16 µM, first compound 0.1 µM) 16.5% | viability, T/C (second compound 3.16 µM, first compound 0.316 µM) 15.2% | viability, T/C (second compound 3.16 µM, first compound 1 µM) 13.8% | viability, T/C (second compound 3.16 µM, first compound 3.16 µM) 16.5% | viability, T/C (second compound 3.16 µM, first compound 10 µM) 20.6% | viability, T/C (second compound 10 µM, first compound 0.0316 µM) 16.5% | viability, T/C (second compound 10 µM, first compound 0.1 µM) 12.2% | viability, T/C (second compound 10 µM, first compound 0.316 µM) 13.3% | viability, T/C (second compound 10 µM, first compound 1 µM) 11.7% | viability, T/C (second compound 10 µM, first compound 3.16 µM) 16% | viability, T/C (second compound 10 µM, first compound 10 µM) 19%

O=C(c1ccc(F)c(F)c1Nc1ccc(I)cc1F)N1CC(O)([C@@H]2CCCCN2)C1
inactive: viability, T/C (compound 0.00316 µM) 91.9% [middle of 4 runs] | viability, T/C (compound 0.01 µM) 78.6% [middle of 4 runs] | viability, T/C (compound 0.0316 µM) 71% [middle of 4 runs] | viability, T/C (compound 0.1 µM) 53.7% [middle of 4 runs] | viability, T/C (compound 0.316 µM) 51.2% [middle of 4 runs] | viability, T/C (compound 1 µM) 39.7% [middle of 4 runs]
206 nM [middle of 4 runs]: IC50 (curve of compound)

CC1(C)CCC(Nc2ncc(C(F)(F)F)c(-c3c[nH]c4c(P(C)(C)=O)c(C#N)ccc34)n2)CN1 (stereo not given)
inactive: viability, T/C (compound 0.000949 µM) 110% (2×) and 103% and 111% | viability, T/C (compound 0.003 µM) 90.3% [middle of 4 runs] | viability, T/C (compound 0.00949 µM) 77.3% [middle of 4 runs] | viability, T/C (compound 0.03 µM) 62.6% [middle of 4 runs] | viability, T/C (compound 0.0949 µM) 50.2% [middle of 4 runs] | viability, T/C (compound 0.3 µM) 49.1% [middle of 4 runs]
